# In patent US12528790B2, “Amide derivative having antiviral activity” (Shionogi & Co., Ltd., priority 2020, dated 2026):
# Read-outs that look alike come from different tables or passages of the source.
# Columns and labels:
# [1] = test system: RSV A2 strain; experiment: In vitro CPE (CytoPathic Effect) inhibition effect evaluation test, RSV type A; format: cell-based
# In short: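 HEp-2 cells (2.4×10^5 cells/mL, 2% FBS E-MEM) were infected with RSV alongside 3-fold compound dilutions and incubated at 37 °C, 4 days for A2 and 5 days for B Wash/18537. Viable cells quantified by CellTiter-Glo 2.0 luminescence; EC50 by nonlinear regression as 50% CPE inhibition.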
# [2] = test system: RSV B (Wash/18537 strain); experiment: In vitro CPE (CytoPathic Effect) inhibition effect evaluation test, RSV type B; format: cell-based; settings: human respiratory syncytial virus, inhibitory effect against RSV type B, CPE inhibition; read-out: EC50
# Procedure: The test sample is diluted in advance to an appropriate concentration with DMSO, and 3-fold series of serial dilutions were prepared on a 384-well plate (0.32 μL/well). HEp-2 cells (CCL-23; ATCC) adjusted at appropriate number (2.4×10^5 cells/mL) in 2% FBS E-MEM (prepared by adding kanamycin and FBS to Eagle's Minimum Essential Medium; Invitrogen) were added at 12.5 μL/well to the 384-well plate previously aliquoted with the test samples. The RSV A2 strain was diluted to an appropriate concentration in a culture medium and added to the 384-well plate containing the test sample at 12.5 μL/well. The culture medium was added additionally to the 384-well plate, and the test was started with 50 μL/well. Control wells were prepared with only virus-free culture medium. The plate was incubated in a 5% CO2 incubator at 37° C. for 4 days, and the plate was then placed at room temperature for 30 minutes. CellTiter-Glo (registered trademark) 2.0 assay (Promega) was added at 15 μL/well, mixed for 30 seconds, and the plate was placed for approximately 1 hour. The luminescent signal was then measured by EnVision (PerkinElmer). The inhibitory effect of the test agents on RSV-induced CPE was calculated as 0% and 100% inhibition rate for each sample concentration based on the level of remaining viable cells by CellTiter-Glo (registered trademark) 2.0, with the EC50 value for each compound calculated by nonlinear regression as the concentration that inhibits RSV-induced CPE by 50%. In the case of evaluation against RSV type B, RSV B (Wash/18537 strain) was infected in the same manner as the type A, cultured for 5 days, and quantitated in the same manner as for the A2 strain.
# [3] = human respiratory syncytial virus, inhibitory effect against RSV type A (RSV A2 strain), HEp-2 cells, CPE inhibition, read-out: EC50
"EC50 ([1]; inhibitory effect against RSV type A (RSV A2 strain), HEp-2 cells, CPE inhibition, read-out: EC50) [µM]",Structure (SMILES),"EC50 [1, 3] [µM]",EC50 [2] [µM],"EC50 ([1]; human respiratory syncytial virus, HEp-2) [µM]"
–,O=C(NC1(C(=O)O)C2CC3CC(C2)CC1C3)c1cnc(N2CCc3cc(OCCN4CCOCC4)ccc32)nc1C(F)(F)F (stereo not shown) [Compound I-31],< 0.01,0.01 to 0.1,–
–,O=C(NC1(C(=O)O)C2CC3CC(C2)CC1C3)c1cnc(N2CC(C3CCCC3)c3cc(OC4CCN(CC(F)(F)F)CC4)ccc32)nc1C(F)(F)F (racemic) [Compound I-487],< 0.01,0.01 to 0.1,–
–,O=C(NC1(C(=O)O)C2CC3CC(C2)CC1C3)c1cnc(-c2cn(C3CC3)c3cc(OC4CCN(c5ncc(F)cn5)CC4)ccc23)nc1C(F)(F)F (stereo not shown) [Compound I-379],< 0.01,< 0.01,–
–,COC[C@@H](C)n1cc(-c2ccc(C(=O)NC3(C(=O)O)C4CC5CC(C4)CC3C5)c(C(F)(F)F)n2)c2ccc(O[C@H]3CC[C@H](N4CC(F)(F)C4)CC3)cc21 (stereo partly shown) [Compound I-581],< 0.01,< 0.01,–
–,COC1CCN(C(=O)c2ccc3c(c2)C2(CCCCC2)CN3c2ncc(C(=O)NC3(C(=O)O)C4CC5CC(C4)CC3C5)c(C(C)(F)F)n2)CC1 (stereo not shown) [Compound I-609],< 0.01,< 0.01,–
–,O=C(NC1(C(=O)O)C2CC3CC(C2)CC1C3)c1cnc(-c2cn(C3CCC4(CC3)COC4)c3cc(O[C@H]4CC[C@H](N5CC(F)(F)C5)CC4)ccc23)nc1C(F)(F)F (stereo partly shown) [Compound I-498],< 0.01,< 0.01,–
–,O=C(NC1(C(=O)O)C2CC3CC(C2)CC1C3)c1cnc(-c2cn(C3CC4(CC4)C3)c3cc(O[C@H]4CC[C@H](N5CC(F)(F)C5)CC4)ccc23)nc1C(F)(F)F (stereo partly shown) [Compound I-531],< 0.01,< 0.01,–
–,"O=C(NC1(C(=O)O)C2CC3CC(C2)CC1C3)c1ccc(-c2cn(C3CCC(F)CC3)c3cc(OC4CCN(c5ncc(F)cn5)CC4)ccc23)nc1C(F)(F)F (single isomer, unassigned) [Compound I-397]",< 0.01,< 0.01,–
–,O=C(NC1(C(=O)O)C2CC3CC(C2)CC1C3)c1cnc(N2CC3(CCCCC3)c3cc(O[C@H]4CCN(c5ncc(F)cn5)C4)ccc32)nc1C(F)(F)F (stereo partly shown) [Compound I-524],< 0.01,0.1 to 5,–
–,O=C(NC1(C(=O)O)CCCCC1)c1cnc(N2CCc3cc(OCCc4ccccc4)ccc32)nc1C(F)(F)F [Compound I-4],0.01 to 0.1,0.1 to 5,–
–,O=C(NC1(C(=O)O)C2CC3CC(C2)CC1C3)c1ccc(-c2cn(C3CC3)c3cc(O[C@H]4CC[C@H](N5CC(F)(F)C5)CC4)ccc23)nc1C(F)(F)F (stereo partly shown) [Compound I-513],< 0.01,< 0.01,–
–,COC[C@@H](C)n1cc(-c2ncc(C(=O)NC3(C(=O)O)C4CC5CC(C4)CC3C5)c(C(F)(F)F)n2)c2ccc(O[C@H]3CC[C@@H](N4CC(F)(F)C4)CC3)cc21 (stereo partly shown) [Compound I-585],< 0.01,< 0.01,–
–,CCC(CC)n1cc(-c2ncc(C(=O)NC3(C(=O)O)C4CC5CC(C4)CC3C5)c(C(F)(F)F)n2)c2ccc(OC3CCN(c4ncc(F)cn4)CC3)cc21 (stereo not shown) [Compound I-421],< 0.01,< 0.01,–
–,Cc1ccc2c(c1)C1(CCN(CC(F)(F)F)CC1)CN2c1ncc(C(=O)NC2(C(=O)O)C3CC4CC(C3)CC2C4)c(C(F)(F)F)n1 (stereo not shown) [Compound I-136],–,–,< 0.01
–,CC(C)C(=O)N1CCC(Oc2ccc3c(c2)CCN3c2ncc(C(=O)NC3(C(=O)O)CCCCC3)c(C(F)(F)F)n2)CC1 [Compound I-65],0.01 to 0.1,–,–
–,Cn1ccnc1N1CCC(Oc2ccc3c(c2)CCN3c2ncc(C(=O)NC3(C(=O)O)CCCCC3)c(C(F)(F)F)n2)CC1 [Compound I-207],0.01 to 0.1,–,–
0.01 to 0.1,Cn1cc2c(n1)CCN(Cc1ccc3c(c1)C1(CCOCC1)CN3c1ncc(C(=O)NC3(C(=O)O)C4CC5CC(C4)CC3C5)c(C(F)(F)F)n1)C2 (stereo not shown) [Compound I-351],–,–,–
–,O=C(NC1(C(=O)O)C2CC3CC(C2)CC1C3)c1cnc(-c2cn(C3CCC(F)(F)CC3)c3ccc(OC4CCCN(C5COC5)C4)cc23)nc1C(F)(F)F (racemic) [Compound I-233],0.01 to 0.1,–,–
